System: 885512-296-R-J2-PDC complex spheroid viability
Assay: Anticancer human tumor 885512-296-R-J2-PDC patient-derived breast carcinoma cell line growth inhibition
Details: for IC50: curve of first compound; for viability, T/C: stronger effect = lower value
Method in brief: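 Multicellular complex spheroids of tumor cells with human endothelial cells (HUVEC) and mesenchymal stem cells; the LSD1 inhibitor iadademstat was combined with standard-of-care or investigational agents. Top concentration at or near clinical Cmax, half-log dilutions; final DMSO ≤0.25%.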

[1] = second compound 0.1 µM, first compound 0.00949 µM
[2] = second compound 0.1 µM, first compound 0.03 µM
[3] = second compound 0.1 µM, first compound 0.0949 µM
[4] = second compound 0.1 µM, first compound 0.3 µM
[5] = second compound 0.1 µM, first compound 0.949 µM
[6] = second compound 0.1 µM, first compound 3 µM
[7] = second compound 0.316 µM, first compound 0.00949 µM
[8] = second compound 0.316 µM, first compound 0.03 µM
[9] = second compound 0.316 µM, first compound 0.0949 µM
[10] = second compound 0.316 µM, first compound 0.3 µM
[11] = second compound 0.316 µM, first compound 0.949 µM
[12] = second compound 0.316 µM, first compound 3 µM
[13] = second compound 1 µM, first compound 0.00949 µM
[14] = second compound 1 µM, first compound 0.03 µM
[15] = second compound 1 µM, first compound 0.0949 µM
[16] = second compound 1 µM, first compound 0.3 µM
[17] = second compound 1 µM, first compound 0.949 µM
[18] = second compound 1 µM, first compound 3 µM
[19] = second compound 3.16 µM, first compound 0.00949 µM
[20] = second compound 3.16 µM, first compound 0.03 µM
[21] = second compound 3.16 µM, first compound 0.0949 µM
[22] = second compound 3.16 µM, first compound 0.3 µM
[23] = second compound 3.16 µM, first compound 0.949 µM
[24] = second compound 3.16 µM, first compound 3 µM
[25] = second compound 10 µM, first compound 0.00949 µM
[26] = second compound 10 µM, first compound 0.03 µM
[27] = second compound 10 µM, first compound 0.0949 µM
[28] = second compound 10 µM, first compound 0.3 µM
[29] = second compound 10 µM, first compound 0.949 µM
[30] = second compound 10 µM, first compound 3 µM
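Also: spheroids exposed to agents for 7 days before viability read.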

| SMILES | IC50 (second compound 0.1 µM) [nM] | IC50 (second compound 0.316 µM) [nM] | IC50 (second compound 1 µM) [nM] | IC50 (second compound 3.16 µM) [nM] | IC50 (second compound 10 µM) [nM] | viability, T/C [1] [%] | viability, T/C [2] [%] | viability, T/C [3] [%] | viability, T/C [4] [%] | viability, T/C [5] [%] | viability, T/C [6] [%] | viability, T/C [7] [%] | viability, T/C [8] [%] | viability, T/C [9] [%] | viability, T/C [10] [%] | viability, T/C [11] [%] | viability, T/C [12] [%] | viability, T/C [13] [%] | viability, T/C [14] [%] | viability, T/C [15] [%] | other results |
| --- | --- | --- | --- | --- | --- | --- | --- | --- | --- | --- | --- | --- | --- | --- | --- | --- | --- | --- | --- | --- | --- |
| NS(=O)(=O)OCC1CC(n2ccc3c(NC4CCc5ccccc54)ncnc32)CC1O (stereo not given) + NC1CC1c1ccc(-c2cccc(O)c2)cc1 | < 9.49 | < 9.49 | < 9.49 | < 9.49 | < 9.49 | 15.9 | 6.61 | 2.38 | 1.74 | 1.42 | 1.17 | 13.4 | 5.58 | 2.27 | 1.48 | 1.54 | 1.19 | 11.8 | 5.8 | 2.84 | viability, T/C [16]: 1.53%; viability, T/C [17]: 1.65%; viability, T/C [18]: 1.49%; viability, T/C [19]: 10.9%; viability, T/C [20]: 4.37%; viability, T/C [21]: 2.28%; viability, T/C [22]: 1.46%; viability, T/C [23]: 1.66%; viability, T/C [24]: 1.1%; viability, T/C [25]: 8.81%; viability, T/C [26]: 4.76%; viability, T/C [27]: 1.87%; viability, T/C [28]: 1.89%; viability, T/C [29]: 0.97%; viability, T/C [30]: 0.66% |
| Nc1ccccc1NC(=O)c1ccc(CNC(=O)OCc2cccnc2)cc1 + NC1CC1c1ccc(-c2cccc(O)c2)cc1 | 48.2 | 50.4 | 41.9 | 43.1 | 23.9 | 99.3 | 63.1 | 30.5 | 17.5 | 6.69 | 0.26 | 104 | 61.7 | 37.2 | 12.3 | 5.8 | 0.31 | 102 | 53.8 | 35.2 | viability, T/C [16]: 15%; viability, T/C [17]: 5.26%; viability, T/C [18]: 0.29%; viability, T/C [19]: 94.2%; viability, T/C [20]: 57.9%; viability, T/C [21]: 32.8%; viability, T/C [22]: 12.7%; viability, T/C [23]: 5.2%; viability, T/C [24]: 0.22%; viability, T/C [25]: 65.8%; viability, T/C [26]: 45.7%; viability, T/C [27]: 27.9%; viability, T/C [28]: 12.9%; viability, T/C [29]: 4.05%; viability, T/C [30]: 0.22% |
| O=C(C=Cc1cccc(S(=O)(=O)Nc2ccccc2)c1)NO + NC1CC1c1ccc(-c2cccc(O)c2)cc1 | > 3000 | 41.9 | 71.5 | 39.1 | 19.5 | 104 | 66.5 | 26.4 | 15.9 | 2.01 | 136 | 106 | 61.2 | 23.3 | 12 | 2.58 | 116 | 96.3 | 73.6 | 26.6 | viability, T/C [16]: 13.9%; viability, T/C [17]: 1.94%; viability, T/C [18]: 127%; viability, T/C [19]: 92.1%; viability, T/C [20]: 53.6%; viability, T/C [21]: 26.4%; viability, T/C [22]: 14.4%; viability, T/C [23]: 1.95%; viability, T/C [24]: 109%; viability, T/C [25]: 62.8%; viability, T/C [26]: 42.4%; viability, T/C [27]: 16.9%; viability, T/C [28]: 8.77%; viability, T/C [29]: 0.61%; viability, T/C [30]: 82.6% |

— PubChem BioAssay AID1918946 (Molecular Pharmacology Branch, DTP, NCI, 2023)
